Article PMC6511888, “Synthesis, Biological Evaluation, and Molecular Modeling Studies of New Thiadiazole Derivatives as Potent P2X7 Receptor Inhibitors” (Frontiers in Chemistry, 2019)
Values after ≈ are worked out from the molar mass of the structure shown.

Experiments:
[1] = Stability in human liver microsomes; format: in vitro ADME; settings: pH 7.4, read-out: LM stability human (CLint)
Protocol: Thiadiazole 9f stability was evaluated in liver microsomes from male mice and humans according to Faria et al. in 2018 (Faria et al., [2018]). Both solutions contained a final protein concentration of 0.5 mg/ml (0.1 M phosphate buffer) at pH 7.4. Microsomes were preincubated with 9f (1 μM) and DMSO ([…]) at 37°C before NADPH (1 mM) addition. A control for the reaction was a buffer containing 0.1 M phosphate at pH 7.4 in a final volume of 50 μl. Diazepam and verapamil were used as positive controls for mice and humans, respectively. Both types of microsomes were treated with 9f for 0, 5, 15, 30, and 45 min and the negative control [minus Nicotinamide adenine dinucleotide phosphate (NADPH)] for 45 min. To stop the reactions, methanol (50 μl) was added at the appropriate time points, and the samples were centrifuged (1,640 × g) for 20 min at 4°C to […] protein precipitation.
In vitro intrinsic clearance (CLint mic) for the metabolism of 9f in mouse and human liver microsomes was calculated using the equations below:
Half-life (t1/2) (minutes) = 0.693/k (1)
V(μL/mg) = volume of the incubation solution (μl)/protein in the incubation solution (mg) (2)
Intrinsic clearance (CLint) (μl/minutes/mg protein) = V × 0.693/t1/2 (3) according to the manufacturer's instructions.

[2] = test system: mouse peritoneal macrophages; test: LDH release assay (toxicity); format: cell-based; settings: 10 μM; relative to maximum LDH release caused by 0.05% Triton X-100; cell type not given; mean ± SD
Protocol: (§1) Mouse peritoneal macrophages (5 × 10^5 cells) and HEK-293 cells transfected with P2X7R (5 × 10^5 cells) were plated in a 96-well-plate for 24 h before the treatment. […] The supernatant collected in this assay was used to measure the presence of LDH in the media using a cytotoxicity detection kit (Sigma kit for LDH) according to the manufacturer's instructions (Faria et al., [2018]).

[3] = LDH release assay (toxicity); format: cell-based, mouse; settings: mouse peritoneal macrophages; for IC50 at 24 h: read-out: Macrophages IC50 (toxic effect); for CC50 at 24 h: mouse, peritoneal macrophages, toxicity measured for 24 h
Protocol: as §1

P2X7R = target: T1, P2X7R (Mus musculus, UniProt Q9Z1M0); test: Dye uptake assay (propidium iodide) in mouse peritoneal macrophages; format: cell-based; settings: mean ± SD; for inhibition at 10 µM: percentage relative to the maximum uptake of propidium stimulated by 1 mM ATP only; for IC50: propidium uptake assay, mice peritoneal macrophages
T1 construct: plated for 24 h before dye uptake assays, whole-cell patch clamp experiments, and IL-1β release assays; endogenous in cells; host or cells: mouse (Swiss Webster) peritoneal macrophages
T1 sequence (Q9Z1M0 1-595): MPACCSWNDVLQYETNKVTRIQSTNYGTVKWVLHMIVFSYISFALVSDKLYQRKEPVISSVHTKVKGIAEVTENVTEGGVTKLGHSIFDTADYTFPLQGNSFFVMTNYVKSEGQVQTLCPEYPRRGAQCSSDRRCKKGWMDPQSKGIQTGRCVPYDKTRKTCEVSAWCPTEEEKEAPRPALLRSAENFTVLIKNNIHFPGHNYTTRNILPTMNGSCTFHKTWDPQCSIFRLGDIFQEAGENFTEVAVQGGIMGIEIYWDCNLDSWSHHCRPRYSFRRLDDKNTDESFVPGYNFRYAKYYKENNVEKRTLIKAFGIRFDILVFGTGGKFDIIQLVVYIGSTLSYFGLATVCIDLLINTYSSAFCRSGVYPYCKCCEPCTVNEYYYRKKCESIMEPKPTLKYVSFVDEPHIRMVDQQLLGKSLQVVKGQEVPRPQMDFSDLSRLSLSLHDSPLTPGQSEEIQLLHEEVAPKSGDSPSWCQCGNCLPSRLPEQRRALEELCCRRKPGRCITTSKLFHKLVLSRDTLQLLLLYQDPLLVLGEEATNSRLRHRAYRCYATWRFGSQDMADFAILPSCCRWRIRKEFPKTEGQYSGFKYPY
Protocol: Our protocols adhered to the Ethical Principles in Animal Experimentation adopted by the Brazilian College of Animal Experimentation and approved by the FIOCRUZ Research Ethics Committee (Faria et al., [2005]; number L039- 2016). Male mouse (Swiss Webster) peritoneal macrophages were collected from peritoneal cavity lavage and plated for 24 h before dye uptake assays, whole-cell patch clamp experiments, and IL-1β release assays.
HEK-293 cells transfected with hP2X7R and mouse peritoneal macrophages were plated at 2.5 × 10^6 or 5 × 10^5 cells/ml, respectively, in 96-well culture plates containing DMEM with 10% FBS and anti-biotics (50 U/ml penicillin and […] streptomycin) in a humidified 5% CO2 atmosphere at 37°C for 24 h (Faria et al., [2018]).
[…] In the last 5 min of ATP incubation, propidium iodide for macrophages (PI; 750 nM) or ethidium bromide (EB; 25 μM) for HEK-293 cells was added to all wells. PI dye was excited at a wavelength of 530 nm, and its fluorescence emission was read at a wavelength of 590 nm using an M5 plate reader (Molecular Devices). EB dye was excited at a wavelength of 530 nm and emitted at a wavelength of 620 nm.

[4] = pH-dependent kinetic solubility; format: physicochemical; settings: kinetic from dmso stock
Protocol: DMSO stock solutions (5 μl) were added into a 995-μl acetonitrile/buffer (1:1) mixture to prepare the calibration standard solutions. The reaction samples were centrifuged (10,000 rpm, 10 min, 25°C) and diluted 1:1 with acetonitrile (Faria et al., [2018]).

P2Y12R = target: T2, P2Y12R (Mus musculus, UniProt Q9CPV9); test: 2MeSADP-activated [Ca2+]i shifts in mouse peritoneal macrophages; format: cell-based; settings: concentration not given
T2 construct: endogenous in cells; host or cells: mouse peritoneal macrophages
T2 sequence (Q9CPV9 whole entry): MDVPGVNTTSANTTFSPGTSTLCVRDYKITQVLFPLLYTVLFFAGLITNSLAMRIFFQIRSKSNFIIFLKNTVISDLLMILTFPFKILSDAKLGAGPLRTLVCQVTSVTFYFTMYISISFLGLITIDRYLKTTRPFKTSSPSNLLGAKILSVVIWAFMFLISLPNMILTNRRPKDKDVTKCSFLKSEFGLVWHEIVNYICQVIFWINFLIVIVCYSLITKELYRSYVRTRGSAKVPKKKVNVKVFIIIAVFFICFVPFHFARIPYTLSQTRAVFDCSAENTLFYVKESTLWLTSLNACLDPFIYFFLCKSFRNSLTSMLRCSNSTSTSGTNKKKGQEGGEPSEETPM

[5] = buffer, aqueous buffer, acidic pH values
[6] = phosphate buffer, pH 7.4, aqueous buffer

| microsomal CLint at 1 μM [1] [µL/min/mg] | inhibition at 10 µM (P2X7R) [%] | IC50 (P2X7R) [µM] | solubility at 2 h [4, 5] [µM] | solubility at 2 h ([4]; buffer, pH 10, aqueous buffer) [µM] | solubility at 2 h [4, 6] [µM] | Effect on 2MeSADP-activated [Ca2+]i shifts (P2Y12R) | SMILES | % LDH release [2] [%] | IC50 at 24 h [3] [µM] | CC50 at 24 h [3] [µM] |
| --- | --- | --- | --- | --- | --- | --- | --- | --- | --- | --- |
| 26.4 | 30 ± 0.6 | 0.111 ± 0.009 | 300 (≈ 90.8 µg/mL) | > 500 | > 500 | – | N#Cc1cnn(-c2nnc(-c3ccccc3Cl)s2)c1N [Compound 9b] | 15.8 ± 1.3 | 2270 ± 86 | 2270 |
| 39.5 | 15.7 ± 0.6 | 0.016 ± 0.002 | 300 (≈ 105 µg/mL) | > 500 | > 500 | not inhibited | CCOC(=O)c1cnn(-c2nnc(-c3ccccc3Cl)s2)c1N [Compound 9f] | 42.5 ± 0.4 | 6080 ± 102 | 3900 |
| – | – | 0.108 ± 0.016 | – | – | – | not inhibited | COc1ccc(CC(=O)NC(NC(=NC#N)Nc2cccc3ncccc23)C(C)(C)C)cc1OC (stereo not shown) [Compound A740003, N-(1-{[(cyanoimino)(5-quinolinylamino)methyl]amino}-2,2-dimethylpropyl)-2-(3,4-dimethoxyphenyl)acetamide] | – | 325 ± 6 | – |
| 18.6 | 28.2 ± 0.7 | 0.109 ± 0.011 | 300 (≈ 85.9 µg/mL) | > 500 | > 500 | – | N#Cc1cnn(-c2nnc(-c3ccc(F)cc3)s2)c1N [Compound 9c] | 10 ± 0.7 | 3900 ± 77 | 6080 |
| 46.7 | 29.2 ± 0.3 | 0.122 ± 0.013 | 300 (≈ 82.3 µg/mL) | > 500 | > 500 | – | Cc1cc(C)n(-c2nnc(-c3ccc(F)cc3)s2)n1 [Compound 11c, 2-(3,5-dimethyl-1H-pyrazol-1-yl)-5-(4-fluorophenyl)-1,3,4-thiadiazole] | 24 ± 1.7 | 3240 ± 201 | 3240 |
